Laboratory results reported in ChEMBL document CHEMBL1201862, “PubChem BioAssay data set” (2004).
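96-well plates; 48 h exposure; 5 concentrations. Endpoints by linear interpolation between flanking doses. Not reached: highest tested concentration assigned. GI50 is the concentration that inhibits growth by half.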 The source made the active and inactive calls. No stated cut-off is given here; in the data, active = GI50 up to about 1.1 µM and inactive = higher.

How the values were obtained:
Experiment in all cases: inhibition of tumour cell growth, NCI panel, 48 h
[1] = system: RXF 393
[2] = system: A549
[3] = system: A498
[4] = system: PC-3
[5] = system: HOP-92
[6] = system: OVCAR-4
[7] = system: T47D
[8] = system: SR
[9] = system: TK-10
[10] = system: CAKI-1
[11] = system: U-251
[12] = system: UACC-257
[13] = system: MCF7
[14] = system: OVCAR-3
[15] = system: NCI-H522
[16] = system: SNB-19
[17] = system: HCT-116
[18] = system: NCI-H23
[19] = system: SF-539
[20] = system: MDA-N

SMILES	GI50 [1]	GI50 [2]	GI50 [3]	GI50 [4]	GI50 [5]	GI50 [6]	GI50 [7]	GI50 [8]	GI50 [9]	GI50 [10]	GI50 [11]	GI50 [12]	GI50 [13]	GI50 [14]	GI50 [15]	GI50 [16]	GI50 [17]	GI50 [18]	GI50 [19]	GI50 [20]
COc1cc(/C=N\O)nc(-c2ccccn2)c1	0.363 µM (active)	0.344 µM (active)	1.3 µM (inactive)	2.43 µM (inactive)	1.44 µM (inactive)	0.504 µM (active)	1.18 µM (inactive)	0.0438 µM (active)	> 30.8 µM (inactive)	0.303 µM (active)	0.553 µM (active)	2.4 µM (inactive)	0.474 µM (active)	0.222 µM (active)	0.129 µM (active)	1.11 µM (active)	0.301 µM (active)	0.51 µM (active)	0.575 µM (active)	
Nn1c(Cc2ccc(Cl)cc2)n[nH]c1=O	> 100 µM (inactive)	> 100 µM (inactive)	> 100 µM (inactive)		> 100 µM (inactive)	> 100 µM (inactive)	> 100 µM (inactive)	> 100 µM (inactive)	> 100 µM (inactive)	50.5 µM (inactive)	> 100 µM (inactive)	> 100 µM (inactive)		> 100 µM (inactive)	> 100 µM (inactive)	> 100 µM (inactive)	> 100 µM (inactive)	> 100 µM (inactive)	> 100 µM (inactive)	> 100 µM (inactive)
O=C1/C(=C/c2ccc([N+](=O)[O-])cc2)CCCc2ccccc21		> 100 µM (inactive)		> 100 µM (inactive)	> 100 µM (inactive)	> 100 µM (inactive)		> 100 µM (inactive)	> 100 µM (inactive)	> 100 µM (inactive)	> 100 µM (inactive)	> 100 µM (inactive)	> 100 µM (inactive)	> 100 µM (inactive)	> 100 µM (inactive)	32.1 µM (inactive)	> 100 µM (inactive)	> 100 µM (inactive)	76.2 µM (inactive)	> 100 µM (inactive)
CCc1cccc(=O)c([O-])c1.CCc1cccc(=O)c([O-])c1.[Bi+3].[Cl-]	18.2 µM (inactive)	8.97 µM (inactive)	15 µM (inactive)		12.9 µM (inactive)	13.6 µM (inactive)		3.71 µM (inactive)	4.42 µM (inactive)	2.43 µM (inactive)	6.46 µM (inactive)	6.58 µM (inactive)		5.92 µM (inactive)	1.79 µM (inactive)	11 µM (inactive)	7.45 µM (inactive)	13.5 µM (inactive)	9.84 µM (inactive)	
O=C1CC(c2ccccc2Cl)Oc2ccccc21 (stereo not drawn)	17.2 µM (inactive)		> 100 µM (inactive)	31.3 µM (inactive)	25 µM (inactive)	51.9 µM (inactive)	43 µM (inactive)	23.2 µM (inactive)	98.6 µM (inactive)	40.9 µM (inactive)	27.7 µM (inactive)	> 100 µM (inactive)	11.4 µM (inactive)			34.9 µM (inactive)	45 µM (inactive)		16 µM (inactive)	
CSc1nc(-c2cc3c(c(SC)n2)CCCCC3)cc2c1CCCCC2	> 100 µM (inactive)	> 100 µM (inactive)	> 100 µM (inactive)	> 100 µM (inactive)		> 100 µM (inactive)			> 100 µM (inactive)	> 100 µM (inactive)	> 100 µM (inactive)	> 100 µM (inactive)		> 100 µM (inactive)	7.67 µM (inactive)	> 100 µM (inactive)	> 100 µM (inactive)	> 100 µM (inactive)	> 100 µM (inactive)	> 100 µM (inactive)
CNC(=O)OCc1nccc2c(C)c3[nH]c4ccc(OC)cc4c3cc12	3.16 µM (inactive)	4.9 µM (inactive)	6.7 µM (inactive)		10.6 µM (inactive)	8.11 µM (inactive)		0.218 µM (active)	19.3 µM (inactive)	19.1 µM (inactive)	5.12 µM (inactive)	11.3 µM (inactive)		21.9 µM (inactive)	5.09 µM (inactive)	3.78 µM (inactive)	1.95 µM (inactive)	4.74 µM (inactive)	3.17 µM (inactive)	
O=S1(=O)N2CN3CN(C2)CN1C3	56.9 µM (inactive)	280 µM (inactive)	223 µM (inactive)		> 100 µM (inactive)	28.7 µM (inactive)			286 µM (inactive)	205 µM (inactive)	331 µM (inactive)	30.1 µM (inactive)	56.8 µM (inactive)	> 10 µM (inactive)	177 µM (inactive)	238 µM (inactive)	21.6 µM (inactive)	20.5 µM (inactive)	> 100 µM (inactive)	
COc1ccc2[nH]c3c([N+](=O)[O-])ccc(NCCCN(C)C)c3/c(=N/CCCN(C)C)c2c1	0.631 µM (active)	1.74 µM (inactive)		1.06 µM (active)	3.33 µM (inactive)	0.914 µM (active)	> 10 µM (inactive)	0.28 µM (active)	2.36 µM (inactive)	2.07 µM (inactive)		> 10 µM (inactive)	0.743 µM (active)					1.56 µM (inactive)		
N#CI1OC(C(F)(F)F)(C(F)(F)F)c2ccccc21	16.8 µM (inactive)	62.5 µM (inactive)	37.4 µM (inactive)	15.8 µM (inactive)	16.3 µM (inactive)	15.1 µM (inactive)	18.1 µM (inactive)		19 µM (inactive)	14.1 µM (inactive)	21.2 µM (inactive)	22.2 µM (inactive)	18.9 µM (inactive)	15.7 µM (inactive)	7.19 µM (inactive)		16.4 µM (inactive)	18.6 µM (inactive)	19.9 µM (inactive)	
O=C1CC(C(=O)N2CCCCC2)n2c(=O)n(-c3ccccc3)c(=O)n2C1 (stereo not drawn)	> 100 µM (inactive)	> 100 µM (inactive)		> 100 µM (inactive)					> 100 µM (inactive)	> 100 µM (inactive)		> 100 µM (inactive)	> 100 µM (inactive)	> 100 µM (inactive)	> 100 µM (inactive)	> 100 µM (inactive)	> 100 µM (inactive)	> 100 µM (inactive)	> 100 µM (inactive)	> 100 µM (inactive)
Cc1ccccc1NC(=O)/C(=N/NC(=O)CC#N)C1C(=O)N(c2ccccc2)N=C1N (stereo not drawn)	> 100 µM (inactive)	> 100 µM (inactive)	> 100 µM (inactive)		36.5 µM (inactive)	> 100 µM (inactive)		52.1 µM (inactive)	> 100 µM (inactive)	> 100 µM (inactive)	> 100 µM (inactive)	> 100 µM (inactive)		> 100 µM (inactive)	57.1 µM (inactive)	> 100 µM (inactive)	> 100 µM (inactive)	> 100 µM (inactive)	> 100 µM (inactive)	
N=c1oc2cc(O)ccc2cc1C(=O)Nc1ccccn1	26.6 µM (inactive)	> 100 µM (inactive)	24.7 µM (inactive)	40.1 µM (inactive)	> 100 µM (inactive)	33 µM (inactive)	32.7 µM (inactive)		41.9 µM (inactive)	51.9 µM (inactive)	44.5 µM (inactive)	> 100 µM (inactive)	14.9 µM (inactive)	72.4 µM (inactive)	3.43 µM (inactive)	92.9 µM (inactive)	56.1 µM (inactive)	80.9 µM (inactive)	92.9 µM (inactive)	
COc1cc(C2C3=C(COC3=O)OC(C)(C)Oc3cc4c(cc32)OCO4)cc(OC)c1OC (stereo not drawn)	0.259 µM (active)	0.344 µM (active)	0.281 µM (active)	0.344 µM (active)	3.58 µM (inactive)	3.3 µM (inactive)		0.195 µM (active)		2.27 µM (inactive)	0.447 µM (active)	1.17 µM (inactive)	0.415 µM (active)	0.447 µM (active)	0.278 µM (active)	0.245 µM (active)	0.318 µM (active)	0.384 µM (active)	0.212 µM (active)	0.212 µM (active)
CC(=O)Oc1cc(Cl)c(C)c2c1[C@H]1CC[C@]3(C)[C@@H](OC(C)=O)CC[C@H]3[C@@H]1CC2	74.8 µM (inactive)	> 100 µM (inactive)	> 100 µM (inactive)		> 100 µM (inactive)		83.2 µM (inactive)		> 100 µM (inactive)		94.2 µM (inactive)	> 100 µM (inactive)	83.4 µM (inactive)	> 100 µM (inactive)	> 100 µM (inactive)	> 100 µM (inactive)	54.6 µM (inactive)	> 100 µM (inactive)	> 100 µM (inactive)	> 100 µM (inactive)
COC(=O)C1=CC2C=CC(C1C(=O)OC)C1C(C(=O)OC)=C(C(=O)OC)C(C(=O)OC)=C(C(=O)OC)C21OC (stereo not drawn)	> 100 µM (inactive)	> 100 µM (inactive)	> 100 µM (inactive)		> 100 µM (inactive)	> 100 µM (inactive)		> 100 µM (inactive)	> 100 µM (inactive)	> 100 µM (inactive)	> 100 µM (inactive)	> 100 µM (inactive)		> 100 µM (inactive)	> 100 µM (inactive)		> 100 µM (inactive)	> 100 µM (inactive)	> 100 µM (inactive)	
O=C(/C=C/c1ccccc1)CCC1C(=O)NC(=S)NC1=O	> 100 µM (inactive)	> 100 µM (inactive)	> 100 µM (inactive)	> 100 µM (inactive)	> 100 µM (inactive)		> 100 µM (inactive)			26.5 µM (inactive)	> 100 µM (inactive)	> 100 µM (inactive)		> 100 µM (inactive)		> 100 µM (inactive)	> 100 µM (inactive)	> 100 µM (inactive)	> 100 µM (inactive)	
